Reference: patent publication US20240270821A1, “GIP/GLP1/GCG TRI-RECEPTOR AGONISTS AND USES THEREOF” (priority 2023, published 2024)
Like-named read-outs stand apart in the source and are kept apart here. Starred links: 1 amine or outer side, 2 acyl side, 3 side chain; linkers in the order of their positions; H or OH if unused. Non-standard residues stand in square brackets, D forms with d. Groups on a side chain read outwards from the residue. No end group written: not given here. *: point of attachment. C18 diacid = O=C(O)CCCCCCCCCCCCCCCCC(=O)*; αMePhe(2-F) = C[C@](N)(Cc1ccccc1F)C(=O)O; γGlu = O=C(O)[C@H](CCC(=O)[*:2])N[*:1]; αMe4Pal = C[C@](N)(Cc1ccncc1)C(=O)O; αMeY = C[C@](N)(Cc1ccc(O)cc1)C(=O)O; 4Pal = N[C@@H](Cc1ccncc1)C(=O)O; αMeL = CC(C)C[C@](C)(N)C(=O)O; αMeS = C[C@](N)(CO)C(=O)O; Orn = NCCC[C@H](N)C(=O)O; AEEA = NCCOCCOCC(=O)O; Aib = CC(C)(N)C(=O)O

Columns and labels:
[1] = tested on: Intestinal organoid from Göttingen minipig jejunum tissue, 2D monolayer; test: Cell based in vitro permeability (Papp) assay; type: in vitro ADME
Protocol: Intestinal organoid from Göttingen minipig jejunum tissue and its 2D monolayer are generated using the protocol previously described ([…]-Thiele, […].; Wells, J. M., Optimized procedures for generating an enhanced, near physiological 2D culture system from porcine intestinal organoids. […] After 7 days of culture, organoids are dissociated into single cells by TrypLE (GIbco), and the single cell suspension is added in 24-well transparent transwell inserts (0.3 cm^2, Falcon, BD). […] Samples from the basal compartment are collected at 20 min in the presence of C10. Peptide concentrations in the apical and basal compartments are measured by LC/MS, and the apparent permeability coefficient (Papp) is calculated as previously described (Twarog, C.; Liu, K.; O'Brien, P. J.; Dawson, […] head-to-head Caco-2 assay comparison of the mechanisms of action of the intestinal permeation enhancers: SNAC and sodium caprate (C10).

human GcgR = human GcgR (Homo sapiens, UniProt P47871); test: Functional cAMP activity in the presence of 1% HSA; type: cell-based; conditions: read-out: cAMP Rel EC50, hGcgR
hGIPR [2] = molecular target: T1, hGIPR (Homo sapiens, UniProt P48546); test: Functional cAMP activity in the presence of 1% HSA; type: cell-based; conditions: read-out: cAMP Rel EC50, hGIPR
T1 sequence (P48546 22-466): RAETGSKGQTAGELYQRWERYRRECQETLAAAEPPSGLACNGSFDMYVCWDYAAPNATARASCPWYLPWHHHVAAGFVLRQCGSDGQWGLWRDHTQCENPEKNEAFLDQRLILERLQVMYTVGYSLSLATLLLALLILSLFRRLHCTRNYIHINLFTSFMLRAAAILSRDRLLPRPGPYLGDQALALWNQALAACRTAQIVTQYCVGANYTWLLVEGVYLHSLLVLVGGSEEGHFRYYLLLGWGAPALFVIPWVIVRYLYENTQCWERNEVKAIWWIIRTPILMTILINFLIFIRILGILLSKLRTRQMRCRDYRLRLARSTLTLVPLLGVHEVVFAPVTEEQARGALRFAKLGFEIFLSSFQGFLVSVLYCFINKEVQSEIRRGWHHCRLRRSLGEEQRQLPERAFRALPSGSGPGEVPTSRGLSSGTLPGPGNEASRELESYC

hGLP-1R [3] = molecular target: T2, hGLP-1R (Homo sapiens, UniProt P43220); test: Functional cAMP activity in the presence of 1% HSA; type: cell-based; conditions: read-out: cAMP Rel EC50, hGLP-1R
hGLP-1R [4] = molecular target: T2, hGLP-1R; test: Functional cAMP activation in the presence of 0.1% casein (no HSA); type: cell-based; conditions: read-out: Relative cAMP EC50, hGLP-1R;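 for Relative cAMP EC50, hGIPR: intracellular cAMP rise after 30 min at 37 °C read by HTRF against a standard curve, scaled between buffer alone (0%) and top control ligand concentration (100%), four-parameter fit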;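 for Relative cAMP EC50, hGLP-1R: intracellular cAMP rise after 30 min at 37 °C read by HTRF, normalized between buffer only (0%) and maximal control ligand (100%), four-parameter variable-slope fit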;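 for Relative cAMP EC50, hGcgR: intracellular cAMP rise after 30 min at 37 °C, read by HTRF against a cAMP standard curve, scaled from buffer only (0%) to maximal control ligand response (100%)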
hGIPR [5] = molecular target: T1, hGIPR; test: as above; type: cell-based; conditions: read-out: Relative cAMP EC50, hGIPR
hGcgR = hGcgR (Homo sapiens, UniProt P47871); test: as above; type: cell-based; conditions: read-out: Relative cAMP EC50, hGcgR;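 note: intracellular cAMP rise after 30 min at 37 °C, read by HTRF against a cAMP standard curve, scaled from buffer only (0%) to maximal control ligand response (100%)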
[6] = molecular target: T3, human GIP receptor (human) (UniProt P48546); test: cell-based or functional assay
T3 sequence (looked up): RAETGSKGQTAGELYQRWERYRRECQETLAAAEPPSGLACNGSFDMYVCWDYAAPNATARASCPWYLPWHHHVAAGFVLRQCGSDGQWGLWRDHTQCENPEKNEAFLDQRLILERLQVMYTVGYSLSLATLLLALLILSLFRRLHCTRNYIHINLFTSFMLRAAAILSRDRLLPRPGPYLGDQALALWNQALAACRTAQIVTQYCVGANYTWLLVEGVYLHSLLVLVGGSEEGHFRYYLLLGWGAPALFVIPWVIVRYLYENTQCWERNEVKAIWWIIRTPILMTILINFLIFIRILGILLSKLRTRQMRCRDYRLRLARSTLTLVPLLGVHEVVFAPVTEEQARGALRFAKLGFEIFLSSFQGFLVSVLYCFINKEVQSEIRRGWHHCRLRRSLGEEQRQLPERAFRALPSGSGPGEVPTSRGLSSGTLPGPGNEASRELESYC

hGLP-1R [7] = molecular target: T2, hGLP-1R; test: cell-based or functional assay
[8] = molecular target: human glucagon receptor (human) (UniProt P47871); test: cell-based or functional assay
[9] = molecular target: human GLP1-R (SNAP-GLP-1R expressed in HEK293 cells) (human) (UniProt P43220); test: cell-based or functional assay
[10] = in the presence of 0.1% casein (no HSA), geometric mean

T2 sequence (P43220 24-463): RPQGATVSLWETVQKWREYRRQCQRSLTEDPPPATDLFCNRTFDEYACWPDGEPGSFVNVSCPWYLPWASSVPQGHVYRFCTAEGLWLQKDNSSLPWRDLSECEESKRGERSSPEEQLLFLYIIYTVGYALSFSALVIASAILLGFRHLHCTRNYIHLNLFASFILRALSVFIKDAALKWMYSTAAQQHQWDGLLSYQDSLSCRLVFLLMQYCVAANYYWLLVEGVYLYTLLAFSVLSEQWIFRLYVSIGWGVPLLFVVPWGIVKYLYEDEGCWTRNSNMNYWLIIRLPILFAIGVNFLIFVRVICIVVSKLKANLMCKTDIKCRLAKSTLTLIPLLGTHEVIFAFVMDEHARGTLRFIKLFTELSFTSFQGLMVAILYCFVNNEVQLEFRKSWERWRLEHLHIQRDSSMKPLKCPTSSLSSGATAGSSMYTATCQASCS
Sequence of hGcgR (P47871 26-477): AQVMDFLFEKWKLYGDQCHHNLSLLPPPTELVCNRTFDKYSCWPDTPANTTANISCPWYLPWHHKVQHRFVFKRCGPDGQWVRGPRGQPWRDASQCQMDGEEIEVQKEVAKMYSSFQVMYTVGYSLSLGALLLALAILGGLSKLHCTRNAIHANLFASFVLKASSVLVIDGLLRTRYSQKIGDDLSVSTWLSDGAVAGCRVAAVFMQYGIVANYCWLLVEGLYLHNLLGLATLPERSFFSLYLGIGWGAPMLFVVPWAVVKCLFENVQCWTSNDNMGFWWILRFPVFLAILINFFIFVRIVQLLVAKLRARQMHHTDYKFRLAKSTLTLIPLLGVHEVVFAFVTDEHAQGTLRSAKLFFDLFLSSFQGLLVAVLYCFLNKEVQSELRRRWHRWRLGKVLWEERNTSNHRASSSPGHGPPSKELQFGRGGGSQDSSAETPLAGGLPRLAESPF
Sequence of human GcgR (P47871 26-477): as above
Sequence of human GLP1-R (SNAP-GLP-1R expressed in HEK293 cells) (human) (P43220 24-463): as the sequence (P43220 24-463) above
Sequence of human glucagon receptor (human) (P47871 26-477): as the sequence (P47871 26-477) above

| Molecule | Relative Papp (Compared to internal standard) [1] | EC50 (human GcgR) | EC50 (hGIPR [2]) | EC50 (hGLP-1R [3]) | EC50 (hGLP-1R [4]) | EC50 (hGIPR [5]) | EC50 (hGcgR) | other results |
| --- | --- | --- | --- | --- | --- | --- | --- | --- |
| CC[C@H](C)[C@H](NC(=O)[C@H](Cc1ccccc1)NC(=O)[C@H](C)NC(=O)C(C)(C)NC(=O)[C@H](CCC(N)=O)NC(=O)[C@H](C)NC(=O)[C@H](CCCCNC(=O)COCCOCCNC(=O)CC[C@H](NC(=O)CCCCCCCCCCCCCCCCC(=O)O)C(=O)O)NC(=O)[C@H](CCCCN)NC(=O)[C@H](CC(=O)O)NC(=O)[C@H](CC(C)C)NC(=O)[C@](C)(CC(C)C)NC(=O)[C@H](CCCN)NC(=O)[C@H](CO)NC(=O)[C@H](Cc1ccccc1)NC(=O)[C@H](CC(=O)O)NC(=O)[C@H](CO)NC(=O)[C@@H](NC(=O)[C@H](Cc1ccccc1)NC(=O)[C@@H](NC(=O)CNC(=O)[C@H](CCC(N)=O)NC(=O)C(C)(C)NC(=O)[C@@H](N)Cc1ccc(O)cc1)[C@@H](C)O)[C@@H](C)O)C(=O)N[C@@H](CCC(=O)O)C(=O)N[C@@H](Cc1ccc(O)cc1)C(=O)N[C@@H](CC(C)C)C(=O)N[C@@H](CC(C)C)C(=O)N[C@@H](CCC(=O)O)C(=O)N[C@H](C)C(=O)NCC(=O)N1CCC[C@H]1C(=O)N[C@@H](CO)C(=O)N[C@@H](CO)C(=O)NCC(=O)N[C@@H](C)C(=O)N1CCC[C@H]1C(=O)N1CCC[C@H]1C(=O)N1CCC[C@H]1C(=O)N[C@@H](CO)C(=O)NCC(=O)N[C@H](C(=O)O)[C@@H](C)O [Example 213] | 0.26 | – | – | – | – | – | – | – |
| H-Y[Aib]QGT[αMePhe(2-F)]TSD[4Pal][αMeS]I[αMeL]LD[Orn]K([AEEA-γGlu-C18 diacid])AQ[αMe4Pal]EFI[dE][αMeY]LIEGGPSSGEPPPSGS-NH2 [Example 710] | 0.35 | 126 nM | 0.589 nM | 28.7 nM | 0.274 nM | 0.00578 nM | 1.52 nM | – |
| H-Y[Aib]QGTFTSDFS[Orn][αMeL]LDKK([AEEA-γGlu-C18 diacid])AQ[Aib]AFIEYLLEGGPSSGAPPPEGS-NH2 [Example 130] | 0.06 | 1080 nM | 60.5 nM | 865 nM | – | – | – | EC50 (hGLP-1R [4]; [10]): 4.29 nM; EC50 (hGIPR [5]; [10]): 0.411 nM; EC50 (hGcgR; [10]): 3.74 nM |
| H-Y[Aib]QGTFTSDFS[Orn][αMeL]LDKK([AEEA-γGlu-C18 diacid])AQ[Aib]AFIEYLLE[dA]GPSSGAPPPSGS [Example 212] | 0.22 | – | – | – | – | – | – | – |
| H-Y[Aib]QGT[αMePhe(2-F)]TSD[4Pal]SILLDKK([γGlu-γGlu-C18 diacid])AQ[Aib]AFIE[αMe4Pal]LEEGGPSSGAPPPSGTE-NH2 [Example 552] | 0.53 | 289 nM | 1.67 nM | 86.2 nM | 0.804 nM | 0.0177 nM | 2.53 nM | – |
| H-Y[Aib]QGT[αMePhe(2-F)]TSD[4Pal][αMeS]I[αMeL]LD[Orn]K([γGlu-γGlu-C18 diacid])AQ[αMe4Pal]EFI[dE][αMeY]LIEGGPSSGAPPPEGGGE-NH2 [Example 761] | 0.53 | 162 nM | 0.635 nM | 26.1 nM | 0.226 nM | 0.00686 nM | 1.5 nM | – |
| H-Y[Aib]QGT[αMePhe(2-F)]TSD[4Pal]SI[αMeL]LD[Orn]K([AEEA-γGlu-C18 diacid])AQ[αMe4Pal][Orn]FI[dE][αMeY]LIEGGPSSGEPPPEGE-NH2 [Example 675] | 0.36 | 207 nM | 1.16 nM | 25 nM | 0.254 nM | 0.0111 nM | 2.15 nM | – |
| H-Y[Aib]QGTFTSD[4Pal]SQ[αMeL]LD[Orn]K([Glu-γGlu-C18 diacid])AQ[αMe4Pal]AFIEYLIAGGPSSGAPPPSGSEE-NH2 [Example 1033] | 0.14 | – | – | – | – | – | – | – |
| H-Y[Aib]QGT[αMePhe(2-F)]TSD[4Pal][αMeS]I[αMeL]LD[Orn]K([γGlu-γGlu-C18 diacid])AQ[αMe4Pal]EFI[dE][αMeY]LIEGGPSSGAPPPSGGGE-NH2 [Example 743] | 0.56 | 133 nM | 0.432 nM | 21.2 nM | 0.259 nM | 0.00694 nM | 1.49 nM | – |
| H-Y[Aib]QGTFTSD[4Pal]S[Orn][αMeL]LDKK([AEEA-γGlu-C18 diacid])AQ[αMe4Pal]AFIEYLIE[Aib]GPSSGAPPPSGS-NH2 [Example 808] | 0.29 | 286 nM | 27.3 nM | 406 nM | – | – | – | EC50 (hGLP-1R [4]; [10]): 3.58 nM; EC50 (hGIPR [5]; [10]): 0.187 nM; EC50 (hGcgR; [10]): 1.65 nM |
| H-Y[Aib]QGT[αMePhe(2-F)]TSD[4Pal][αMeS]I[αMeL]LD[Orn]K([γGlu-γGlu-C18 diacid])AQ[αMe4Pal]EFI[dE][αMeY]LVEGGPSSGEPPPSGS-NH2 [Example 737] | 0.69 | 122 nM | 0.498 nM | 22.3 nM | 0.285 nM | 0.00804 nM | 1.34 nM | – |
| CC[C@H](C)[C@H](NC(=O)[C@H](Cc1ccccc1)NC(=O)[C@H](C)NC(=O)C(C)(C)NC(=O)[C@H](CCC(N)=O)NC(=O)[C@H](C)NC(=O)[C@H](CCCCNC(=O)COCCOCCNC(=O)CC[C@H](NC(=O)CCCCCCCCCCCCCCCCC(=O)O)C(=O)O)NC(=O)[C@H](CCCCN)NC(=O)[C@H](CC(=O)O)NC(=O)[C@H](CC(C)C)NC(=O)[C@](C)(CC(C)C)NC(=O)[C@H](CCCN)NC(=O)[C@H](CO)NC(=O)[C@H](Cc1ccccc1)NC(=O)[C@H](CC(=O)O)NC(=O)[C@H](CO)NC(=O)[C@@H](NC(=O)[C@H](Cc1ccccc1)NC(=O)[C@@H](NC(=O)CNC(=O)[C@H](CCC(N)=O)NC(=O)C(C)(C)NC(=O)[C@@H](N)Cc1ccc(O)cc1)[C@@H](C)O)[C@@H](C)O)C(=O)N[C@@H](CCC(=O)O)C(=O)N[C@@H](Cc1c[nH]c2ccccc12)C(=O)N[C@@H](CC(C)C)C(=O)N[C@@H](CC(C)C)C(=O)N[C@@H](CCC(=O)O)C(=O)NCC(=O)NCC(=O)N1CCC[C@H]1C(=O)N[C@@H](CO)C(=O)N[C@@H](CO)C(=O)NCC(=O)N[C@@H](C)C(=O)N1CCC[C@H]1C(=O)N1C[C@H](O)C[C@H]1C(=O)N1CCC[C@H]1C(=O)N[C@@H](CO)C(=O)NCC(=O)N[C@@H](CCC(=O)O)C(N)=O [Example 137] | 0.04 | – | – | – | – | – | – | – |
| H-Y[Aib]QGT[αMePhe(2-F)]TSD[4Pal]SILLD[Orn]K([AEEA-γGlu-C18 diacid])AQ[αMe4Pal]EFI[dE][αMeY]LLEGGPSSGAPPPSGS-NH2 (C-terminus assumed) [Example 670] | 0.46 | – | – | – | – | – | – | – |
| YXQGTFTSDXSKXLDKKAQXAFIEYLLAGGPSSGEPPPSGE (synthetic construct; SITE 2: note = 2-Aminoisobutyric Acid; SITE 10: note = 3-(4-Pyridyl)-L-alanine; SITE 13: note = alpha-methyl-leucine; SITE 17: note = Lysine is chemically modified through conjugation of the epsilon-amino group of the Lysine side chain with (2-[2-(2-Amino-ethoxy)-ethoxy]-acetyl)) [Example 28] | – | – | – | – | – | – | – | Relative cAMP EC50 [6]: 0.255 nM; cAMP Rel EC50 (in the presence of 1% HSA) [6]: 63.8 nM; Relative cAMP EC50 (hGLP-1R [7]): 3.68 nM; cAMP Rel EC50 (in the presence of 1% HSA) (hGLP-1R [7]): 686 nM; Relative cAMP EC50 [8]: 12.6 nM; cAMP Rel EC50 (in the presence of 1% HSA) [8]: 1550 nM; GLP1R Internalization EC50 [9]: 81.8 nM; Internalization % TOP [9]: 76.2% |
